The test system of data set [1] is carrageenan foot edema. The data set is described as follows: Rat Carrageenan Foot Pad Edema Test. It is filed as in vivo. The conditions noted are these: 30 mg/kg body weight, oral, dosed 1 h before carrageenan, foot volume 3 h after carrageenan. On the procedure:
The carrageenan foot edema test was performed with materials, reagents and procedures essentially as described by Winter, et al., (Proc. Soc. Exp. Biol. Med., 111, 544 (1962)). Male Sprague-Dawley rats were selected in each group so that the average body weight was as close as possible. Rats were fasted with free access to water for over sixteen hours prior to the test. The rats were dosed orally (1 ml) with compounds suspended in vehicle containing 0.5% methylcellulose and 0.025% surfactant, or with vehicle alone. One hour later a subplantar injection of 0.1 ml of 1% solution of carrageenan/sterile 0.9% saline was administered and the volume of the injected foot was measured with a displacement plethysmometer connected to a pressure transducer with a digital indicator. Three hours after the injection of the carrageenan, the volume of the foot was again measured. The average foot swelling in a group of drug-treated animals was compared with that of a group of placebo-treated animals and the. percentage inhibition of edema was determined (Otterness and Bliven, Laboratory Models for Testing NSAIDs, in Non-steroidal Anti-Inflammatory Drugs, (J. Lombardino, ed. 1985)).

Data set [2] concerns carrageenan-induced hyperalgesic foot withdrawal. The data set is described as follows: Rat Carrageenan-induced Analgesia Test. It is filed as in vivo. The conditions noted are these: oral, 3 h after carrageenan. On the procedure:
The analgesia test using rat carrageenan was performed with materials, reagents and procedures essentially as described by Hargreaves, et al., (Pain, 32, 77 (1988)). Male Sprague-Dawley rats were treated as previously described for the Carrageenan Foot Pad Edema test. Three hours after the injection of the carrageenan, the rats were placed in a special plexiglass container with a transparent floor having a high intensity lamp as a radiant heat source, positionable under the floor. After an initial twenty minute period, thermal stimulation was begun on either the injected foot or on the contralateral uninjected foot. A photoelectric cell turned off the lamp and timer when light was interrupted by paw withdrawal. The time until the rat withdraws its foot was then measured. The withdrawal latency in seconds was determined for the control and drug-treated groups, and percent inhibition of the hyperalgesic foot withdrawal determined.

In data set [3] the target is T1, Human COX II (Homo sapiens, UniProt P35354).
T1 construct: A 2.0 kb fragment containing the coding region of either human or murine COX-I or human or murine COX-II; made in house; host or cells: SF9 insect cells (recombinant baculovirus, transfer vector pVL1393)
T1 sequence (P35354 18-604): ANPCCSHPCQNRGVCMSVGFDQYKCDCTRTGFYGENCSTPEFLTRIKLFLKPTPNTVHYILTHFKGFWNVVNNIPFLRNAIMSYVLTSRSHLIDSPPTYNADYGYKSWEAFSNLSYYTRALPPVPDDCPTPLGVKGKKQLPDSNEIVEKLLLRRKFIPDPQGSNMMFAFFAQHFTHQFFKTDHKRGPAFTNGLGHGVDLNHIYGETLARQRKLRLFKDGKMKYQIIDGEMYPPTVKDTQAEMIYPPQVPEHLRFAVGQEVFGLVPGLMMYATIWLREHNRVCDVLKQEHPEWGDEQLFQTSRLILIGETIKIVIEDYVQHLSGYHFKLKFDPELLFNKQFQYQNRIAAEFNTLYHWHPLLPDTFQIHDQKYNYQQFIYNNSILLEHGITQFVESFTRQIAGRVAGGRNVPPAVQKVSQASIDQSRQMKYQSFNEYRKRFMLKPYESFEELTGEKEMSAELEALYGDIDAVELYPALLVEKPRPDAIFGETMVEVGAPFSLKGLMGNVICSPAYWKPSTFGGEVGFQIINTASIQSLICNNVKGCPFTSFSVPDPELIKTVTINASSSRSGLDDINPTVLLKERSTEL
The data set is described as follows: COX II activity in vitro (PGE2 ELISA, recombinant enzyme). The note with it: arachidonic acid 10 μM, pre-incubation 10-20 minutes; read-out: Human COX II ID50. It is filed as biochemical. How it is done:
The COX II inhibition activity of the compounds of this invention illustrated in the Examples was determined by the following methods.
(§1) A 2.0 kb fragment containing the coding region of either human or murine COX-I or human or murine COX-II was cloned into a BamH1 site of the baculovirus transfer vector pVL1393 (Invitrogen) to generate the baculovirus transfer vectors for COX-I and COX-II in a manner similar to the method of D. R. O'Reilly et al (Baculovirus Expression Vectors: A Laboratory Manual (1992)). Recombinant baculoviruses were isolated by transfecting 4 μg of baculovirus transfer vector DNA into SF9 insect cells ([…]) along with 200 ng of linearized baculovirus plasmid DNA by the calcium phosphate method. See M. D. Summers and G. E. Smith, A Manual of Methods for Baculovirus Vectors and Insect Cell Culture Procedures, Texas Agric. Exp. Station Bull. 1555 (1987). Recombinant viruses were purified by three rounds of plaque purification and high titer (10E7-10E8 pfu/ml), stocks of virus were prepared. For large scale production, SF9 insect cells were infected in 10 liter fermentors (0.5×10^6/ml) with the recombinant baculovirus stock such that the multiplicity of infection was 0.1. After 72 hours the cells were centrifuged and the cell pellet homogenized in Tris/Sucrose (50 mM: 25%, pH 8.0) containing 1% 3-[(3-cholamidopropyl)dimethylammonio]-1-propanesulfonate (CHAPS). The homogenate was centrifuged at 10,000×G for 30 minutes, and the resultant supernatant was stored at −80° C. before being assayed for COX activity.
(§2) COX activity was assayed as PGE2 formed/μg protein/time using an ELISA to detect the prostaglandin released. CHAPS-solubilized insect cell membranes containing the appropriate COX enzyme were incubated in a potassium phosphate buffer (50 mM, pH 8.0) containing epinephrine, phenol, and heme with the addition of arachidonic acid (10 μM). Compounds were pre-incubated with the enzyme for 10-20 minutes prior to the addition of arachidonic acid. Any reaction between the arachidonic acid and the enzyme was stopped after ten minutes at 37° C./room temperature by transferring 40 μl of reaction mix into 160 μl ELISA buffer and 25 μM indomethacin. The PGE2 formed was measured by standard ELISA technology (Cayman Chemical).
(In an ELISA, binding on a coated surface is turned into a signal by an enzyme label.)

The target of data set [4] is T2, Human COX I (Homo sapiens, UniProt P23219).
T2 construct: A 2.0 kb fragment containing the coding region of either human or murine COX-I or human or murine COX-II; made in house; host or cells: SF9 insect cells (recombinant baculovirus, transfer vector pVL1393)
T2 sequence (P23219 24-599): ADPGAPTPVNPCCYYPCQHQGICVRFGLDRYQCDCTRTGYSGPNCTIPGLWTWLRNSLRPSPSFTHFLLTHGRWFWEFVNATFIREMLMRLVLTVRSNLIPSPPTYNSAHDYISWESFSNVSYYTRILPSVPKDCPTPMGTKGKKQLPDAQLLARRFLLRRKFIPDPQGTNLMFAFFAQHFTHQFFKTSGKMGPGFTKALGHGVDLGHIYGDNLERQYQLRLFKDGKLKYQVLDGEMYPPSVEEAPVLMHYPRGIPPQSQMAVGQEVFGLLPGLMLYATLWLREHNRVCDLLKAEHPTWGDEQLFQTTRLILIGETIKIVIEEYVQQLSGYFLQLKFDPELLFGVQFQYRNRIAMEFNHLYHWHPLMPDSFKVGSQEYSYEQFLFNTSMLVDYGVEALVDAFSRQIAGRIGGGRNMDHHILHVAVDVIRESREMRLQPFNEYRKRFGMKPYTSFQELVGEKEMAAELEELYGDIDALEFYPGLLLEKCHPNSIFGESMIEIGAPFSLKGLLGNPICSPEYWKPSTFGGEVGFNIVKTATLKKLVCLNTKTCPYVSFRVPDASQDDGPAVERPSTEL
Description: COX I activity in vitro (PGE2 ELISA, recombinant enzyme). It is filed as biochemical. The note with it: arachidonic acid 10 μM, pre-incubation 10-20 minutes; read-out: Human COX I ID50. On the procedure: as §1, §2

Marks after values point to notes of the source that are not given here.

For `CS(=O)(=O)c1ccc(-c2nc(C(F)(F)F)[nH]c2-c2ccc(F)cc2)cc1` [Example 1, 5-(4-Fluorophenyl)-4-(4-methylsulfonylphenyl)-2-trifluoromethyl-1H-imidazole], the melting point was 249 to 250 °C (dec.). Besides, the “RAT PAW EDEMA % Inhibition” value in data set [1] is recorded as 22%. Moreover, in data set [2] (30 mg/kg body weight), the “ANALGESIA % Inhibition” value is on record as 25%. The IC50 in data set [3] amounted to 0.2 µM. In addition, in data set [4], the IC50 was more than 100 µM.

As to `CC(=O)n1c(C(F)(F)F)nc(-c2ccc(S(C)(=O)=O)cc2)c1-c1cc(C)cc(Cl)c1` [Example 58, 1-[5-(3-Chloro-5-methylphenyl)-4-[4-(methylsulfonyl)phenyl]-2-(trifluoromethyl)-1H-imidazol-1-yl]ethanone], the melting point is 257 °C. In addition, the “RAT PAW EDEMA % Inhibition” value in data set [1] was 14%. The IC50 in data set [3] worked out at 0.2 µM. Besides, the IC50 in data set [4] was more than 100 µM.

In the case of `CSc1ccc(-c2[nH]c(C(F)(F)F)nc2-c2ccc(S(C)(=O)=O)cc2)cc1Cl` [Example 55, 5-[3-Chloro-4-(methylthio)phenyl]-4-[4-(methylsulfonyl)phenyl]-2-(trifluoromethyl)-1H-imidazole], the melting point lay within 255 to 257 °C. In addition, the IC50 in data set [3] was found to be 0.3 µM. The IC50 in data set [4] was more than 100 µM.

As to `CS(=O)(=O)c1ccc(-c2nc(-c3ccco3)[nH]c2-c2ccc(F)cc2)cc1` [Example 7, 5-(4-Fluorophenyl)-2-(2-furyl)-4-(4-methylsulfonylphenyl)-1H-imidazole], the melting point was 244 to 246 °C (dec.). For the same compound, in data set [3], the IC50 was found to be 4.8 µM. In addition, the IC50 in data set [4] was more than 100 µM.

Compound `CS(=O)(=O)c1ccc(-c2nc(C(F)(F)F)[nH]c2-c2cccs2)cc1` [Example 70, 4-[4-(Methylsulfonyl)phenyl]-5-(2-thiophenyl)-2-(trifluoromethyl)-1H-imidazole] returned a melting point of 95 to 97 °C. Also, the “RAT PAW EDEMA % Inhibition” value in data set [1] stood at 27%. In data set [2] (50 mg/kg body weight), the “ANALGESIA % Inhibition” value is recorded as 29* %. For the same compound, the IC50 in data set [3] amounted to 1.4 µM. Also, the IC50 in data set [4] was more than 100 µM.

`COC(C)c1nc(-c2ccc(F)cc2)c(-c2ccc(S(C)(=O)=O)cc2)[nH]1` (centres unmarked) [Example 94, 4-(4-Fluorophenyl)-2-(1-methoxyethyl)-5-[4-(methyl-sulfonyl)phenyl]-1H-imidazole] came in with a melting point of 212 °C. In addition, the IC50 in data set [3] came to 6.4 µM. Besides, the IC50 in data set [4] is more than 100 µM.

`COc1ccc(-c2[nH]c(C(F)(F)F)nc2-c2ccc(S(C)(=O)=O)cc2)cc1F` [Example 10, 5-(3-Fluoro-4-methoxyphenyl)-4-[4-(methylsulfonyl)phenyl]-2-(trifluoromethyl)-1H-imidazole] returned a melting point of 228 to 234 °C. For the same compound, in data set [3], the IC50 was found to be 1.2 µM. The IC50 in data set [4] came out at 63.5 µM.

In the case of `CS(=O)(=O)c1ccc(-c2nc(-c3ccoc3)[nH]c2-c2ccc(F)cc2)cc1` [Example 20, 5-(4-Fluorophenyl)-2-(3-furyl)-4-(4-methylsulfonylphenyl)-1H-imidazole], the melting point is 233 to 235 °C (dec.). The IC50 in data set [3] stood at 40.7 µM. Besides, the IC50 in data set [4] was more than 100 µM.

Take `CS(=O)(=O)c1ccc(-c2nc(/C=C/c3ccccc3)[nH]c2-c2ccc(F)cc2)cc1` [Example 3, 5-(4-Fluorophenyl)-4-(4-methylsulfonylphenyl)-2-(2-phenyl-trans-eth-1-ene)-1H-imidazole]: the melting point was in the range of 221 to 224 °C. Moreover, the IC50 in data set [3] was 0.2 µM. In addition, the IC50 in data set [4] came out at 2.2 µM.

As for `CS(=O)(=O)c1ccc(-c2nc(C(F)(F)F)[nH]c2-c2ccc3ccccc3c2)cc1` [Example 14], the melting point is 228 to 230 °C. In data set [3], the IC50 is 0.6 µM. In data set [4], the IC50 amounted to 2 µM.

In general, melting point refers to the temperature, or range, at which the solid turns liquid.

The values are drawn from patent US6426360B1, “4,5-substituted imidazolyl compounds for the treatment of inflammation” (G D Searle & Co., priority 1994, dated 2002).
